# Laboratory results: patent US20160122386A1, “V1A RECEPTOR AGONISTS” (FERRING B.V., priority 2014, published 2016)
# Starred links: 1 amine or outer side, 2 acyl side, 3 side chain; linkers in the order of their positions; H or OH if unused. Positions of bridges follow the written chain, without caps; N, C: chain ends. Non-standard residues stand in square brackets, D forms with d. Residues, ends and D or L forms follow the SMILES beside them. Chains are numbered I, II in the order given. *: point of attachment. d(isoGln) = NC(=O)[C@@H](CCC(=O)[*:2])N[*:1]; X2 = N=C(N)N[C@@H](CCCCN[*:1])C(=O)[*:2]; dPhe(4-Cl) = N[C@H](Cc1ccc(Cl)cc1)C(=O)O; isoGln = NC(=O)[C@H](CCC(=O)[*:2])N[*:1]; d(εLys) = N[C@H](CCCCN[*:1])C(=O)[*:2]; X1 = N[C@@H](CCC(=O)[*:2])C(=O)[*:1]; εLys = N[C@@H](CCCCN[*:1])C(=O)[*:2]; Cit = NC(=O)NCCC[C@H](N)C(=O)O; Orn = NCCC[C@H](N)C(=O)O; Dab = NCC[C@H](N)C(=O)O; PhAc = O=C(Cc1ccccc1)*
# Target: T1, human V1aR (Homo sapiens, UniProt P37288)
# T1 construct: expressed in transfected cells
# Assay: Agonist activity at vasopressin V1a receptors, cell-based FLIPR calcium assay
# Details: for Emax: read-out: Efficacy Avg. (%)
# Method in brief: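 HEK Flp-In cells stably expressing human V1aR were loaded with Calcium 4 dye plus 2.5 mM probenecid for 1 h at 37 °C, then given half-log compound concentrations (final 0.1% DMSO) on FLIPR Tetra.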
# T1 sequence (P37288 whole entry): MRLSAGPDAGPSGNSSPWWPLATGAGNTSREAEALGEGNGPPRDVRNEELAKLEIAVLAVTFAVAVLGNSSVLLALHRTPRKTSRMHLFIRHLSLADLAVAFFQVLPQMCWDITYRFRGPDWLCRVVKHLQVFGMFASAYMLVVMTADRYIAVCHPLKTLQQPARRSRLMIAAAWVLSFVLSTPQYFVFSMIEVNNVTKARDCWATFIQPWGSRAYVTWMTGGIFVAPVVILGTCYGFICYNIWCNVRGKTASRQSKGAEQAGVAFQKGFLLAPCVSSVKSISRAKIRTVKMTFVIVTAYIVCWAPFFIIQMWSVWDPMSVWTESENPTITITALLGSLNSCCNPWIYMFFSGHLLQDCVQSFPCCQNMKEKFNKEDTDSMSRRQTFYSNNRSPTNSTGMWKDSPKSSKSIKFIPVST
Compound,EC50 [nM],Emax [%]
CC[C@H](C)[C@@H]1NC(=O)[C@H](Cc2ccccc2)NC(=O)[C@@H](N)CSSC[C@@H](C(=O)N2CCC[C@H]2C(=O)N[C@@H](CCCNCCCCCNC(=O)CC[C@H](NC(=O)[C@H](CCCNC(=N)N)NC(=O)[C@@H]2CCCN2C(=O)[C@H](Cc2c[nH]cn2)NC(=O)[C@H](CC(N)=O)NC(=O)[C@H](CCC(N)=O)NC(=O)[C@H](Cc2ccccc2)NC(=O)[C@@H](Cc2ccc(OC)cc2)NC(=O)Cc2ccccc2)C(N)=O)C(=O)NCC(N)=O)NC(=O)[C@H](CC(N)=O)NC(=O)[C@H](CCC(N)=O)NC1=O [Compound 13],2.4,48
CC[C@H](C)[C@@H]1NC(=O)[C@H](Cc2ccccc2)NC(=O)[C@@H](N)CSSC[C@@H](C(=O)N2CCC[C@H]2C(=O)N[C@@H](CCNC(=O)[C@H](N)CCCCNC(=O)CC[C@H](NC(=O)[C@H](CCCNC(=N)N)NC(=O)[C@@H]2CCCN2C(=O)[C@H](C)NC(=O)[C@H](CC(N)=O)NC(=O)[C@H](CCC(N)=O)NC(=O)[C@H](Cc2ccccc2)NC(=O)[C@@H](Cc2ccc(OC)cc2)NC(=O)Cc2ccccc2)C(N)=O)C(=O)NCC(N)=O)NC(=O)[C@H](CC(N)=O)NC(=O)[C@H](CCC(N)=O)NC1=O [Compound 39] (I: H-CFIQNCP[Dab]G-NH2 / II: PhAc-[dY](Me)FQNAPR[isoGln][d(εLys)]; disulfide I:1-I:6; amide I:8-II:C),1.8,48
CC[C@H](C)[C@@H]1NC(=O)[C@H](Cc2ccccc2)NC(=O)[C@@H](N)CSSC[C@@H](C(=O)N2CCC[C@H]2C(=O)N[C@@H](CCCNCCCCNC(=O)CC[C@H](NC(=O)[C@H](CCCNC(=N)N)NC(=O)[C@@H]2CCCN2C(=O)[C@H](CCCNC(=N)N)NC(=O)[C@H](CC(N)=O)NC(=O)[C@H](CCC(N)=O)NC(=O)[C@H](Cc2ccccc2)NC(=O)[C@@H](Cc2ccc(OC)cc2)NC(=O)Cc2ccccc2)C(N)=O)C(=O)NCC(N)=O)NC(=O)[C@H](CC(N)=O)NC(=O)[C@H](CCC(N)=O)NC1=O [Compound 10],> 10000,26
CC[C@H](C)[C@@H]1NC(=O)[C@H](Cc2ccccc2)NC(=O)[C@@H](N)CSSC[C@@H](C(=O)N2CCC[C@H]2C(=O)N[C@@H](CCNC(=O)[C@@H](N)CCCCNC(=O)CC[C@H](NC(=O)[C@H](CCCNC(=N)N)NC(=O)[C@@H]2CCCN2C(=O)[C@H](CCCNC(N)=O)NC(=O)[C@H](CC(N)=O)NC(=O)[C@H](CCC(N)=O)NC(=O)[C@H](Cc2ccccc2)NC(=O)[C@@H](Cc2ccc(OC)cc2)NC(=O)Cc2ccccc2)C(N)=O)C(=O)NCC(N)=O)NC(=O)[C@H](CC(N)=O)NC(=O)[C@H](CCC(N)=O)NC1=O [Compound 44] (I: H-CFIQNCP[Dab]G-NH2 / II: PhAc-[dY](Me)FQN[Cit]PR[isoGln][εLys]; disulfide I:1-I:6; amide I:8-II:C),2,40
CC[C@H](C)[C@@H]1NC(=O)[C@H](Cc2ccccc2)NC(=O)[C@@H](N)CSSC[C@@H](C(=O)N2CCC[C@H]2C(=O)N[C@@H](CCCNC(=O)[C@@H](N)CCCCNC(=O)CC[C@H](NC(=O)[C@H](CCCNC(=N)N)NC(=O)[C@@H]2CCCN2C(=O)[C@H](CCCNC(=N)N)NC(=O)[C@H](CC(N)=O)NC(=O)[C@H](CCC(N)=O)NC(=O)[C@H](Cc2ccccc2)NC(=O)[C@@H](Cc2ccc(Cl)cc2)NC(=O)Cc2ccccc2)C(N)=O)C(=O)NCC(N)=O)NC(=O)[C@H](CC(N)=O)NC(=O)[C@H](CCC(N)=O)NC1=O [Compound 25] (I: H-CFIQNCP[Orn]G-NH2 / II: PhAc-[dPhe(4-Cl)]FQNRPR[isoGln][εLys]; disulfide I:1-I:6; amide I:8-II:C),1.4,49
CC[C@H](C)[C@@H]1NC(=O)[C@H](Cc2ccccc2)NC(=O)[C@@H](N)CSSC[C@@H](C(=O)N2CCC[C@H]2C(=O)N[C@@H](CCCNC(=O)[C@H](CCCCNC(=O)CC[C@H](NC(=O)[C@H](CCCNC(=N)N)NC(=O)[C@@H]2CCCN2C(=O)[C@H](CCCNC(=N)N)NC(=O)[C@H](CC(N)=O)NC(=O)[C@H](CCC(N)=O)NC(=O)[C@H](Cc2ccccc2)NC(=O)[C@@H](Cc2ccc(OC)cc2)NC(=O)Cc2ccccc2)C(N)=O)NC(=N)N)C(=O)NCC(N)=O)NC(=O)[C@H](CC(N)=O)NC(=O)[C@H](CCC(N)=O)NC1=O [Compound 26] (I: H-CFIQNCP[Orn]G-NH2 / II: PhAc-[dY](Me)FQNRPR[isoGln][X2]; disulfide I:1-I:6; amide I:8-II:C),0.93,32
CC[C@H](C)[C@@H]1NC(=O)[C@H](Cc2ccccc2)NC(=O)[C@@H](O)CSSC[C@@H](C(=O)N2CCC[C@H]2C(=O)N[C@@H](CCNC(=O)[C@@H](N)CCCCNC(=O)CC[C@H](NC(=O)[C@H](CCCNC(=N)N)NC(=O)[C@@H]2CCCN2C(=O)[C@H](CCCCN)NC(=O)[C@H](CC(N)=O)NC(=O)[C@H](CCC(N)=O)NC(=O)[C@H](Cc2ccccc2)NC(=O)[C@@H](Cc2ccc(OC)cc2)NC(=O)Cc2ccccc2)C(N)=O)C(=O)NCC(N)=O)NC(=O)[C@H](CC(N)=O)NC(=O)[C@H](CCC(N)=O)NC1=O [Compound 32],1,56
CC[C@H](C)[C@@H]1NC(=O)[C@H](Cc2ccccc2)NC(=O)[C@@H](N)CSSC[C@@H](C(=O)N2CCC[C@H]2C(=O)N[C@@H](CCNC(=O)[C@@H](N)CCC(=O)NCCCC[C@H](NC(=O)[C@H](CCCNC(=N)N)NC(=O)[C@@H]2CCCN2C(=O)[C@H](C)NC(=O)[C@H](CC(N)=O)NC(=O)[C@H](CCC(N)=O)NC(=O)[C@H](Cc2ccccc2)NC(=O)[C@@H](Cc2ccc(OC)cc2)NC(=O)Cc2ccccc2)C(N)=O)C(=O)NCC(N)=O)NC(=O)[C@H](CC(N)=O)NC(=O)[C@H](CCC(N)=O)NC1=O [Compound 38] (I: H-CFIQNCP[Dab]G-NH2 / II: PhAc-[dY](Me)FQNAPRK-NH2; disulfide I:1-I:6; linker I:8-II:8 via X1),1.4,46
CC[C@H](C)[C@@H]1NC(=O)[C@H](Cc2ccccc2)NC(=O)[C@@H](N)CSSC[C@@H](C(=O)N2CCC[C@H]2C(=O)N[C@@H](CCNC(=O)[C@H](N)CCCCNC(=O)CC[C@@H](NC(=O)[C@H](CCCNC(=N)N)NC(=O)[C@@H]2CCCN2C(=O)[C@H](CCCNC(N)=O)NC(=O)[C@H](CC(N)=O)NC(=O)[C@H](CCC(N)=O)NC(=O)[C@H](Cc2ccccc2)NC(=O)[C@@H](Cc2ccc(OC)cc2)NC(=O)Cc2ccccc2)C(N)=O)C(=O)NCC(N)=O)NC(=O)[C@H](CC(N)=O)NC(=O)[C@H](CCC(N)=O)NC1=O [Compound 55] (I: H-CFIQNCP[Dab]G-NH2 / II: PhAc-[dY](Me)FQN[Cit]PR[d(isoGln)][d(εLys)]; disulfide I:1-I:6; amide I:8-II:C),–,56
CC[C@H](C)[C@@H]1NC(=O)[C@H](Cc2ccccc2)NC(=O)[C@@H](N)CSSC[C@@H](C(=O)N2CCC[C@H]2C(=O)N[C@@H](CCNC(=O)[C@@H](N)CCCCNC(=O)CC[C@H](NC(=O)[C@H](CCCNC(=N)N)NC(=O)[C@@H]2CCCN2C(=O)[C@H](CCCCN)NC(=O)[C@H](CC(N)=O)NC(=O)[C@H](CCC(N)=O)NC(=O)[C@H](Cc2ccccc2)NC(=O)[C@@H](Cc2ccc(OC)cc2)NC(=O)Cc2ccccc2)C(N)=O)C(=O)NCC(N)=O)NC(=O)[C@H](CC(N)=O)NC(=O)[C@H](CCC(N)=O)NC1=O [Compound 35] (I: H-CFIQNCP[Dab]G-NH2 / II: PhAc-[dY](Me)FQNKPR[isoGln][εLys]; disulfide I:1-I:6; amide I:8-II:C),1.2,43
CC[C@H](C)[C@@H]1NC(=O)[C@H](Cc2ccccc2)NC(=O)[C@@H](N)CSSC[C@@H](C(=O)N2CCC[C@H]2C(=O)N[C@@H](CCNC(=O)[C@H](N)CCCCNC(=O)CC[C@H](NC(=O)[C@H](CCCNC(=N)N)NC(=O)[C@@H]2CCCN2C(=O)[C@H](CCN)NC(=O)[C@H](CC(N)=O)NC(=O)[C@H](CCC(N)=O)NC(=O)[C@H](Cc2ccccc2)NC(=O)[C@@H](Cc2ccc(OC)cc2)NC(=O)Cc2ccccc2)C(N)=O)C(=O)NCC(N)=O)NC(=O)[C@H](CC(N)=O)NC(=O)[C@H](CC(N)=O)NC1=O [Compound 59] (I: H-CFINNCP[Dab]G-NH2 / II: PhAc-[dY](Me)FQN[Dab]PR[isoGln][d(εLys)]; disulfide I:1-I:6; amide I:8-II:C),–,26
